{
  "source": "patent US9988635B2",
  "about": "“Modulation of growth hormone receptor expression and insulin-like growth factor expression” (Antisense Therapeutics Limited, priority 2003, dated 2018)",
  "note": "In the oligonucleotide strings, read from the 5' end, every base follows the letter of its sugar. An asterisk marks phosphorothioate; unmarked linkages are phosphodiester. Other units and linkages are bracketed, terminal groups are in braces. A string of capitals states the bases alone. e = 2'-O-(2-methoxyethyl) (MOE); [5mC] = 5-methylcytosine; d = 2'-deoxy (DNA)",
  "data": [
    {"system": "human growth hormone receptor mRNA", "assay": "Inhibition of human growth hormone receptor mRNA levels in MCF7 cells, quantitative real-time PCR", "format": "cell-based", "design": "concentration or dose not given beside the values", "conditions": "averages from three experiments", "method": "The human breast carcinoma cell line MCF-7 was obtained from the American Type Culture Collection (Manassas, Va.). MCF-7 cells were routinely cultured in DMEM low glucose (Gibco/Life Technologies, Gaithersburg, Md.) supplemented with 10% fetal calf serum (Gibco/Life Technologies, Gaithersburg, Md.). Cells were routinely passaged by trypsinization and dilution when they reached 90% confluence. Cells were seeded into 96-well plates (Falcon-Primaria #3872) at a density of 7000 cells/well for use in RT-PCR analysis.\nWhen cells reached 65-75% confluency, they were treated with oligonucleotide. For cells grown in 96-well plates, wells were washed once with 100 μL OPTI-MEM™-1 reduced-serum medium (Invitrogen Corporation, Carlsbad, Calif.) and then treated with 130 μL of OPTI-MEM™-1 containing 3.75 μg/mL LIPOFECTIN™ (Invitrogen Corporation, Carlsbad, Calif.) and the desired concentration of oligonucleotide. Cells are treated and data are obtained in triplicate. After 4-7 hours of treatment at 37° C., the medium was replaced with fresh medium. Cells were harvested 16-24 hours after oligonucleotide treatment.\nTotal RNA was isolated using an RNEASY 96™ kit and buffers purchased from Qiagen Inc. (Valencia, Calif.) following the manufacturer's recommended procedures. Briefly, for cells grown on 96-well plates, growth medium was removed from the cells and each well was washed with 200 μL cold PBS. 150 μL Buffer RLT was added to each well and the plate vigorously agitated for 20 seconds. 150 μL of 70% ethanol was then added to each well and the contents mixed by pipetting three times up and down. The samples were then transferred to the RNEASY 96™ well plate attached to a QIAVAC™ manifold fitted with a waste collection tray and attached to a vacuum source. Vacuum was applied for 1 minute. 500 μL of Buffer RW1 was added to each well of the RNEASY 96™ plate and incubated for 15 minutes and the vacuum was again applied for 1 minute. An additional 500 μL of Buffer RW1 was added to each well of the RNEASY 96™ plate and the vacuum was applied for 2 minutes. 1 mL of Buffer RPE was then added to each well of the RNEASY 96™ plate and the vacuum applied for a period of 90 seconds. The Buffer RPE wash was then repeated and the vacuum was applied for an additional 3 minutes. The plate was then removed from the QIAVAC™ manifold and blotted dry on paper towels. The plate was then re-attached to the QIAVAC™ manifold fitted with a collection tube rack containing 1.2 mL collection tubes. RNA was then eluted by pipetting 140 μL of RNAse free water into each well, incubating 1 minute, and then applying the vacuum for 3 minutes.\nQuantitation of growth hormone receptor mRNA levels was accomplished by real-time quantitative PCR using the ABI PRISM™ 7600, 7700, or 7900 Sequence Detection System (PE-Applied Biosystems, Foster City, Calif.) according to manufacturer's instructions. This is a closed-tube, non-gel-based, fluorescence detection system which allows high-throughput quantitation of polymerase chain reaction (PCR) products in real-time. As opposed to standard PCR in which amplification products are quantitated after the PCR is completed, products in real-time quantitative PCR are quantitated as they accumulate. This is accomplished by including in the PCR reaction an oligonucleotide probe that anneals specifically between the forward and reverse PCR primers, and contains two fluorescent dyes. A reporter dye (e.g., FAM or JOE, obtained from either PE-Applied Biosystems, Foster City, Calif., Operon Technologies Inc., Alameda, Calif. or Integrated DNA Technologies Inc., Coralville, Iowa) is attached to the 5′ end of the probe and a quencher dye (e.g., TAMRA, obtained from either PE-Applied Biosystems, Foster City, Calif., Operon Technologies Inc., Alameda, Calif. or Integrated DNA Technologies Inc., Coralville, Iowa) is attached to the 3′ end of the probe. When the probe and dyes are intact, reporter dye emission is quenched by the proximity of the 3′ quencher dye. […]", "units": {"% INHIB of human growth hormone receptor mRNA levels": "%"}, "values": [
      {"substance": "227452 (antisense eT*e[5mC]*eA*eG*eG*dG*d[5mC]*dA*dT*dT*d[5mC]*dT*dT*dT*d[5mC]*e[5mC]*eA*eT*eT*e[5mC]) [compound 227452]", "% INHIB of human growth hormone receptor mRNA levels": 79},
      {"substance": "227453 (antisense e[5mC]*eA*eT*eA*eA*dT*d[5mC]*dA*dG*dG*dG*d[5mC]*dA*dT*dT*e[5mC]*eT*eT*eT*e[5mC]) [compound 227453]", "% INHIB of human growth hormone receptor mRNA levels": 52},
      {"substance": "227464 (antisense e[5mC]*e[5mC]*eT*eT*eT*dA*dA*dT*d[5mC]*dT*dT*dT*dG*dG*dA*eA*e[5mC]*eT*eG*eG) [compound 227464]", "% INHIB of human growth hormone receptor mRNA levels": 58},
      {"substance": "227468 (antisense eT*e[5mC]*eA*eT*e[5mC]*dA*dA*dT*dA*dT*d[5mC]*dT*dA*dG*d[5mC]*eT*e[5mC]*eA*eA*eT) [compound 227468]", "% INHIB of human growth hormone receptor mRNA levels": 62},
      {"substance": "227469 (antisense e[5mC]*eT*eT*eA*eG*dA*dA*dG*dT*d[5mC]*dT*dG*dT*d[5mC]*dT*eG*eT*eG*eT*e[5mC]) [compound 227469]", "% INHIB of human growth hormone receptor mRNA levels": 63},
      {"substance": "227475 (antisense e[5mC]*e[5mC]*eT*eG*e[5mC]*dT*dG*dG*dT*dG*dT*dA*dA*dT*dG*eT*e[5mC]*eG*e[5mC]*eT) [compound 227475]", "% INHIB of human growth hormone receptor mRNA levels": 68},
      {"substance": "227480 (antisense eA*eT*eG*eT*eA*dA*dA*dT*dG*dT*d[5mC]*d[5mC]*dT*d[5mC]*dT*eT*eG*eG*eT*eT) [compound 227480]", "% INHIB of human growth hormone receptor mRNA levels": 66},
      {"substance": "227481 (antisense eT*eG*eG*eT*eG*dA*dT*dG*dT*dA*dA*dA*dT*dG*dT*e[5mC]*e[5mC]*eT*e[5mC]*eT) [compound 227481]", "% INHIB of human growth hormone receptor mRNA levels": 45},
      {"substance": "227482 (antisense eT*eT*e[5mC]*eT*eG*dT*dG*dG*dT*dG*dA*dT*dG*dT*dA*eA*eA*eT*eG*eT) [compound 227482]", "% INHIB of human growth hormone receptor mRNA levels": 53},
      {"substance": "227483 (antisense eA*eG*eG*e[5mC]*eT*dT*dT*d[5mC]*dT*dG*dT*dG*dG*dT*dG*eA*eT*eG*eT*eA) [compound 227483]", "% INHIB of human growth hormone receptor mRNA levels": 75},
      {"substance": "227484 (antisense eT*eG*eG*eT*eA*dA*dG*dG*d[5mC]*dT*dT*dT*d[5mC]*dT*dG*eT*eG*eG*eT*eG) [compound 227484]", "% INHIB of human growth hormone receptor mRNA levels": 63},
      {"substance": "227488 (antisense eA*eG*eT*eT*eG*dG*dT*d[5mC]*dT*dG*dT*dG*d[5mC]*dT*d[5mC]*eA*e[5mC]*eA*eT*eA) [compound 227488]", "% INHIB of human growth hormone receptor mRNA levels": 86},
      {"substance": "227489 (antisense eT*eG*eT*eT*e[5mC]*dA*dG*dT*dT*dG*dG*dT*d[5mC]*dT*dG*eT*eG*e[5mC]*eT*e[5mC]) [compound 227489]", "% INHIB of human growth hormone receptor mRNA levels": 75},
      {"substance": "227490 (antisense eG*e[5mC]*eA*eT*eG*dA*dT*dT*dT*dT*dG*dT*dT*d[5mC]*dA*eG*eT*eT*eG*eG) [compound 227490]", "% INHIB of human growth hormone receptor mRNA levels": 67},
      {"substance": "227499 (antisense eT*eA*eT*eA*eA*dA*dA*dG*dG*dG*d[5mC]*dT*dT*dT*dG*eT*eA*eA*eA*eA) [compound 227499]", "% INHIB of human growth hormone receptor mRNA levels": 14},
      {"substance": "227500 (antisense e[5mC]*eA*eT*eA*eG*d[5mC]*dA*dG*d[5mC]*dA*dA*dA*dG*dT*dA*eG*e[5mC]*eA*eG*eA) [compound 227500]", "% INHIB of human growth hormone receptor mRNA levels": 69},
      {"substance": "227501 (antisense eG*e[5mC]*eT*eA*eT*dT*dT*dT*dT*dG*dG*d[5mC]*dT*dA*dT*eA*eG*eA*eA*eA) [compound 227501]", "% INHIB of human growth hormone receptor mRNA levels": 64},
      {"substance": "227502 (antisense eG*eA*eT*eT*eG*dA*dG*dG*dT*dA*dT*dT*dT*dA*dG*e[5mC]*eT*eA*eT*eT) [compound 227502]", "% INHIB of human growth hormone receptor mRNA levels": 56},
      {"substance": "272302 (antisense eG*eA*eT*e[5mC]*e[5mC]*dA*dT*dA*d[5mC]*d[5mC]*dT*dG*dT*dA*dG*eG*eA*e[5mC]*e[5mC]*eT) [compound 272302]", "% INHIB of human growth hormone receptor mRNA levels": 60},
      {"substance": "272303 (antisense e[5mC]*e[5mC]*eA*eG*eA*dG*dA*dT*d[5mC]*d[5mC]*dA*dT*dA*d[5mC]*d[5mC]*eT*eG*eT*eA*eG) [compound 272303]", "% INHIB of human growth hormone receptor mRNA levels": 55},
      {"substance": "272304 (antisense eT*eG*e[5mC]*eT*eA*dA*dG*dG*dA*dT*dA*dG*d[5mC]*dT*dG*e[5mC]*eT*eG*eT*eG) [compound 272304]", "% INHIB of human growth hormone receptor mRNA levels": 48},
      {"substance": "272305 (antisense eT*eT*eG*eT*e[5mC]*dT*dT*dT*dA*dG*dG*d[5mC]*d[5mC]*dT*dG*eG*eA*eT*eT*eA) [compound 272305]", "% INHIB of human growth hormone receptor mRNA levels": 68},
      {"substance": "272306 (antisense eT*eT*eA*eG*eA*dA*dG*dA*dA*dT*dT*dT*dG*dT*d[5mC]*eT*eT*eT*eA*eG) [compound 272306]", "% INHIB of human growth hormone receptor mRNA levels": 13},
      {"substance": "272307 (antisense eG*eT*eG*eA*eA*dT*dT*dT*dA*dG*dG*d[5mC]*dT*d[5mC]*d[5mC]*eT*eT*eA*eG*eA) [compound 272307]", "% INHIB of human growth hormone receptor mRNA levels": 55},
      {"substance": "272308 (antisense eG*e[5mC]*eT*eG*eT*dA*dT*dG*dG*dG*dT*d[5mC]*d[5mC]*dT*dA*eG*eG*eT*eT*e[5mC]) [compound 272308]", "% INHIB of human growth hormone receptor mRNA levels": 57},
      {"substance": "272309 (antisense eT*eA*eA*e[5mC]*eA*dG*d[5mC]*dT*dG*dT*dT*dT*dT*d[5mC]*d[5mC]*e[5mC]*e[5mC]*eA*eG*e[5mC]) [compound 272309]", "% INHIB of human growth hormone receptor mRNA levels": 85},
      {"substance": "272310 (antisense eT*eT*eT*e[5mC]*eA*dT*d[5mC]*d[5mC]*dA*d[5mC]*dT*dG*dT*dA*d[5mC]*e[5mC]*eA*e[5mC]*e[5mC]*eA) [compound 272310]", "% INHIB of human growth hormone receptor mRNA levels": 76},
      {"substance": "272311 (antisense eT*eT*eG*e[5mC]*eA*d[5mC]*dT*dA*dT*dT*dT*d[5mC]*dA*dT*d[5mC]*eA*eA*e[5mC]*eA*eG) [compound 272311]", "% INHIB of human growth hormone receptor mRNA levels": 47},
      {"substance": "272312 (antisense eG*eG*eG*eT*eG*dG*dA*dT*d[5mC]*dT*dG*dG*dT*dT*dG*e[5mC]*eA*e[5mC]*eT*eA) [compound 272312]", "% INHIB of human growth hormone receptor mRNA levels": 57},
      {"substance": "272313 (antisense eA*eT*eT*eG*e[5mC]*dG*dT*dG*dG*dT*dG*d[5mC]*dT*dT*d[5mC]*e[5mC]*e[5mC]*eA*eT*e[5mC]) [compound 272313]", "% INHIB of human growth hormone receptor mRNA levels": 77},
      {"substance": "272314 (antisense eT*eA*eG*eG*eG*dT*d[5mC]*d[5mC]*dA*dT*d[5mC]*dA*dT*dT*dT*eT*e[5mC]*e[5mC]*eA*eT) [compound 272314]", "% INHIB of human growth hormone receptor mRNA levels": 56},
      {"substance": "272315 (antisense e[5mC]*eA*eA*eT*eG*dA*dG*dT*dA*d[5mC]*dA*d[5mC]*dT*dG*dG*eA*eA*e[5mC]*eT*eG) [compound 272315]", "% INHIB of human growth hormone receptor mRNA levels": 53},
      {"substance": "272316 (antisense eA*eA*e[5mC]*eT*e[5mC]*dG*d[5mC]*d[5mC]*dA*dT*dA*dA*dT*dT*dT*e[5mC]*e[5mC]*eA*eG*eA) [compound 272316]", "% INHIB of human growth hormone receptor mRNA levels": 64},
      {"substance": "272317 (antisense eA*eG*e[5mC]*e[5mC]*e[5mC]*dA*dA*dA*dT*dA*dT*dT*d[5mC]*d[5mC]*dA*eA*eA*eG*eA*eT) [compound 272317]", "% INHIB of human growth hormone receptor mRNA levels": 65},
      {"substance": "272319 (antisense eA*eT*eT*eT*eT*d[5mC]*d[5mC]*dT*dT*d[5mC]*d[5mC]*dT*dT*dG*dA*eG*eG*eA*eG*eA) [compound 272319]", "% INHIB of human growth hormone receptor mRNA levels": 67}
    ]}
  ]
}
